Measured values reported in US8299048B2, “Hexahydrocyclopentyl[f]indazole sulfonamides and derivatives thereof as selective glucocorticoid receptor modulators” (Merck Sharp & Dohme Corp., priority 2008, dated 2012).

The compounds below were run against T1, glucocorticoid receptor (Homo sapiens, UniProt P04150) (assay: Ligand binding assay (GR BIND)).
T1 construct: endogenous in cells
T1 sequence (P04150 1-777): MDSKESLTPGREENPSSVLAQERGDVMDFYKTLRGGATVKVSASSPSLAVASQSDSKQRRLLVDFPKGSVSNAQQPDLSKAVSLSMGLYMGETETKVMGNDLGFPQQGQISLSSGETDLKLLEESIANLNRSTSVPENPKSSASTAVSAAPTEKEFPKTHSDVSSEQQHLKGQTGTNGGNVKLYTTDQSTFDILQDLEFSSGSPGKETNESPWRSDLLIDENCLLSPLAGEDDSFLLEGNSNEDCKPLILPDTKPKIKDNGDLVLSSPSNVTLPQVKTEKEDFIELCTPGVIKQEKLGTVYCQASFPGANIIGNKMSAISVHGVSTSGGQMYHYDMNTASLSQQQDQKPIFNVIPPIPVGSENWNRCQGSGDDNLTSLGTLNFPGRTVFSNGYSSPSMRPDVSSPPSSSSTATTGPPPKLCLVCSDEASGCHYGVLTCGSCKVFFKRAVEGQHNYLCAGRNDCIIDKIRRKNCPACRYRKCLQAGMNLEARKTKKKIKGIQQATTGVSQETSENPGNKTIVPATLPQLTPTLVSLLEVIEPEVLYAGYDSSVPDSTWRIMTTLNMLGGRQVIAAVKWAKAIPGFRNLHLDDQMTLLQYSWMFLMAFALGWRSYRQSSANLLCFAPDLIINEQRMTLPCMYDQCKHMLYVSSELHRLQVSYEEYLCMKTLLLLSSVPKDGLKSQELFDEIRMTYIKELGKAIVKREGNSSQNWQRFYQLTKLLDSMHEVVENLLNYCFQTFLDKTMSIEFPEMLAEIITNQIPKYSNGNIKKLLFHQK
How it was run: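 Cytosol from freeze–thawed cells in TEGM (pH 7.2, 10 mM molybdate) was incubated overnight at 4 °C with compound and [3H]-dexamethasone trace (added as 6 nM solution), 2% EtOH final. Bound ligand was captured on hydroxylapatite, filtered, washed and scintillation counted. Values were calculated with dexamethasone as reference.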

Ki | SMILES
3.2 nM | C[C@]12Cc3cnn(-c4ccc(F)cc4)c3C=C1CC[C@@H]2CN(CC(O)C(F)(F)F)S(=O)(=O)Cc1ccccc1C(=O)O (stereo partly drawn) [Example 164, 2-({[{[(4αR,5S)-1-(4-fluorophenyl)-4α-methyl-1,4,4α,5,6,7-hexahydrocyclopenta[f]indazol-5-yl]methyl}(3,3,3-trifluoro-2-hydroxypropyl)amino]sulfonyl}methyl)benzoic acid]
1.6 nM | C[C@]12Cc3cnn(-c4ccc(F)cc4)c3C=C1CC[C@@H]2CN(CCc1ccccn1)S(=O)(=O)Cc1ccccn1 [Example 165, N-{[(4αR,5S)-1-(4-fluorophenyl)-4α-methyl-1,4,4α,5,6,7-hexahydrocyclopenta[f]indazol-5-yl]methyl}-1-pyridin-2-yl-N-(2-pyridin-2-ylethyl)methanesulfonamide]
1.6 nM | C[C@]12Cc3cnn(-c4ccc(F)cc4)c3C=C1CC[C@@H]2CN(CCc1ccccn1)S(=O)(=O)Cc1ccncc1 [Example 166, N-{[(4αR,5S)-1-(4-fluorophenyl)-4α-methyl-1,4,4α,5,6,7-hexahydrocyclopenta[f]indazol-5-yl]methyl}-1-pyridin-4-yl-N-(2-pyridin-2-ylethyl)methanesulfonamide]
2.2 nM | C[C@]12Cc3cnn(-c4ccc(F)cc4)c3C=C1CC[C@@H]2CN(CC(O)C(F)(F)F)S(=O)(=O)Cc1ccccc1C(N)=O (stereo partly drawn) [Example 167, 2-({[{[(4αR,5S)-1-(4-fluorophenyl)-4α-methyl-1,4,4α,5,6,7-hexahydrocyclopenta[f]indazol-5-yl]methyl}(3,3,3-trifluoro-2-hydroxypropyl)amino]sulfonyl}methyl) benzamide]
1.5 nM | Cc1noc(C)c1S(=O)(=O)N(C[C@H]1CCC2=Cc3c(cnn3-c3ccc(F)cc3)C[C@@]21C)C[C@@H](C)O [Example 168, N-{[(4αR,5S)-1-(4-fluorophenyl)-4α-methyl-1,4,4α,5,6,7-hexahydrocyclopenta[f]indazol-5-yl]methyl}-N-[(2R)-2-hydroxypropyl]-3,5-dimethylisoxazole-4-sulfonamide]
